Consider two compounds from publication PMC6723439, “The Aryl Hydrocarbon Receptor (AhR) Mediates the Counter-Regulatory Effects of Pelargonidins in Models of Inflammation and Metabolic Dysfunctions” (Nutrients, 2019).

For assay [1], the target named is T1, aryl hydrocarbon receptor (AhR) (Homo sapiens, UniProt P35869).
T1 construct: pCMVXL4AhR transfected in HepG2 cells
T1 sequence (P35869 11-848): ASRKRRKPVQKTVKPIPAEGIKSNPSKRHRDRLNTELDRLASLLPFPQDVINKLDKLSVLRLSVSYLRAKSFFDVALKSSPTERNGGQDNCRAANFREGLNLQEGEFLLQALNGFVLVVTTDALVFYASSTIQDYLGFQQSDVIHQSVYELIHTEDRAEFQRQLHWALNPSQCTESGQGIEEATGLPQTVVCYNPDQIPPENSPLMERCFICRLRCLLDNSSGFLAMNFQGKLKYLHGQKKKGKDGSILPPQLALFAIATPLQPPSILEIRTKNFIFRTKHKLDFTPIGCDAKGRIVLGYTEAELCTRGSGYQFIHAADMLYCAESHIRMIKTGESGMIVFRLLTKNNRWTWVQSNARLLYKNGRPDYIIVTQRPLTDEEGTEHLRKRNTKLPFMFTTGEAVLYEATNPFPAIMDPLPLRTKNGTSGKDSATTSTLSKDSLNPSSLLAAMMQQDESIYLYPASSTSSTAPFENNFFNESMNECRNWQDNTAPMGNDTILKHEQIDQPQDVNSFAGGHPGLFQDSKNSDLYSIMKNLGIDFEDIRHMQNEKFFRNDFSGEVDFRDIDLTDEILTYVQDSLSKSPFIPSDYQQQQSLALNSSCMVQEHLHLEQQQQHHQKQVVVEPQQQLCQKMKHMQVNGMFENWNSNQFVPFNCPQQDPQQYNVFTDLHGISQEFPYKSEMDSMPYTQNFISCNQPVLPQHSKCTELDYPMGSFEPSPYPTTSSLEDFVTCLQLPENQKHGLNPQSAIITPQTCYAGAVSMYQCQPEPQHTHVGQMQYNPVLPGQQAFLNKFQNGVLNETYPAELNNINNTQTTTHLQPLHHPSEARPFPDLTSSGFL
The assay can be described thus: AhR luciferase reporter transactivation in AhR-transfected HepG2 cells; effects lost in AhR-/- macrophages. Type of assay: cell-based.

Assay [2] deals with T1, aryl hydrocarbon receptor (AhR). In words: AhR luciferase reporter transactivation in AhR-transfected HepG2 cells. Type of assay: cell-based.

As for `COc1ccc(-c2[o+]c3cc(OC)cc(OC)c3cc2O)cc1` [Mt-P, methylated pelargonidin], the EC50 in assay [1] amounted to 1.97 µM.
In turn, `Oc1ccc(-c2[o+]c3cc(O)cc(O)c3cc2O)cc1` [P, pelargonidin] returned a concentration giving a half-maximal response (EC50) in assay [2] of 4 µM.
